Measured values reported in the supplement of paper PMC11451515.

Tested on: P12-Ichikawa
Assay: cell viability relative to DMSO control; higher = less cytotoxic
Settings: 48 h
In short: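 Cells were incubated for 48 h at 37°C before CellTiter-Glo One luminescence was read. The cells were NOMO1 or SEM (500 cells/well) or P12-Ichikawa (1000 cells/well) leukemia cells, adapted for at least four passages in each medium and seeded in 1536-well plates (5 μl). Dosing used library compounds in DMSO applied by pin over 11 threefold points, 47 μM to 0.79 nM. Viability is the per-plate percentage of DMSO wells, with cell-free wells as background.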

[1] = HPLM + 10% dialyzed FBS, 0.000781 µM
[2] = HPLM + 10% dialyzed FBS, 0.00234 µM
[3] = HPLM + 10% dialyzed FBS, 0.00702 µM
[4] = HPLM + 10% dialyzed FBS, 0.0211 µM
[5] = HPLM + 10% dialyzed FBS, 0.0632 µM
[6] = HPLM + 10% dialyzed FBS, 0.19 µM
[7] = HPLM + 10% dialyzed FBS, 0.569 µM
[8] = HPLM + 10% dialyzed FBS, 1.71 µM
[9] = HPLM + 10% dialyzed FBS, 5.12 µM
[10] = HPLM + 10% dialyzed FBS, 15.4 µM
[11] = HPLM + 10% dialyzed FBS, 46.1 µM
[12] = RPMI 5 mM glucose + 10% FBS, 0.000781 µM
[13] = RPMI 5 mM glucose + 10% FBS, 0.00234 µM
[14] = RPMI 5 mM glucose + 10% FBS, 0.00702 µM
[15] = RPMI 5 mM glucose + 10% FBS, 0.0211 µM
[16] = RPMI 5 mM glucose + 10% FBS, 0.0632 µM
[17] = RPMI 5 mM glucose + 10% FBS, 0.19 µM
[18] = RPMI 5 mM glucose + 10% FBS, 0.569 µM
[19] = RPMI 5 mM glucose + 10% FBS, 1.71 µM
[20] = RPMI 5 mM glucose + 10% FBS, 5.12 µM
[21] = RPMI 5 mM glucose + 10% FBS, 15.4 µM
[22] = RPMI 5 mM glucose + 10% FBS, 46.1 µM
[23] = RPMI 5 mM glucose + 10% dialyzed FBS, 0.000781 µM
[24] = RPMI 5 mM glucose + 10% dialyzed FBS, 0.00234 µM
[25] = RPMI 5 mM glucose + 10% dialyzed FBS, 0.00702 µM
[26] = RPMI 5 mM glucose + 10% dialyzed FBS, 0.0211 µM
[27] = RPMI 5 mM glucose + 10% dialyzed FBS, 0.0632 µM
[28] = RPMI 5 mM glucose + 10% dialyzed FBS, 0.19 µM
[29] = RPMI 5 mM glucose + 10% dialyzed FBS, 0.569 µM
[30] = RPMI 5 mM glucose + 10% dialyzed FBS, 1.71 µM
[31] = RPMI 5 mM glucose + 10% dialyzed FBS, 5.12 µM
[32] = RPMI 5 mM glucose + 10% dialyzed FBS, 15.4 µM
[33] = RPMI 5 mM glucose + 10% dialyzed FBS, 46.1 µM

SMILES | cell viability [1] | cell viability [2] | cell viability [3] | cell viability [4] | cell viability [5] | cell viability [6] | cell viability [7] | cell viability [8] | cell viability [9] | cell viability [10] | cell viability [11] | cell viability [12] | cell viability [13] | cell viability [14] | cell viability [15] | cell viability [16] | cell viability [17] | cell viability [18] | cell viability [19] | cell viability [20] | cell viability [21] | cell viability [22] | cell viability [23] | cell viability [24] | cell viability [25] | cell viability [26] | cell viability [27] | cell viability [28] | cell viability [29] | cell viability [30] | cell viability [31] | cell viability [32] | cell viability [33]
CN(C)CC[C@H](c1ccc(Cl)cc1)c1ccccn1 | 83.7% | 78.9% | 84.2% | 84.8% | 90.7% | 90.3% | 85.8% | 90.9% | 87.1% | 86% | 89.7% | 76.9% | 78% | 75.6% | 78.9% | 80.8% | 80.8% | 90.4% | 85.2% | 84.1% | 81.2% | 82.3% | 69.9% | 81.6% | 73.6% | 83.9% | 86.2% | 80.9% | 78.1% | 78.8% | 76.9% | 82.3% | 77.5%
COc1cc([C@H]2Oc3cc([C@H]4Oc5cc(O)cc(O)c5C(=O)[C@@H]4O)ccc3O[C@@H]2CO)ccc1O | 108% | 118% | 106% | 109% | 118% | 119% | 112% | 110% | 105% | 99.8% | 99.8% | 113% | 112% | 125% | 109% | 113% | 104% | 98.9% | 112% | 116% | 101% | 94.2% | 102% | 109% | 115% | 105% | 111% | 106% | 103% | 101% | 96.7% | 100% | 90.1%
